Reference: US12344610B2, “APOL1 inhibitors and methods of use” (Maze Therapeutics, Inc., priority 2022, dated 2025)

Assays:
Format in all cases: cell-based
APOL1 G2 = biological target: T1, APOL1 G2 (Homo sapiens, UniProt O14791, DEL388-389); assay: APOL1-mediated calcium transport (calcium influx) assay, HEK T-REx/GCaMP6f/APOL1 G2 K6.3 cells, FLIPR TETRA; conditions: prevention of calcium influx; geometric mean of at least 2 assay runs; † = average of a technical replicate from a single assay run
T1 construct: expressed in transfected cells; host or cells: HEK293 T-REx clonal line stably expressing GCaMP6f (HEK T-REx/GCaMP6f/APOL1 G2 K6.3), doxycycline induced
T1 sequence (O14791 with tags, fused parts or gaps DEL388-389): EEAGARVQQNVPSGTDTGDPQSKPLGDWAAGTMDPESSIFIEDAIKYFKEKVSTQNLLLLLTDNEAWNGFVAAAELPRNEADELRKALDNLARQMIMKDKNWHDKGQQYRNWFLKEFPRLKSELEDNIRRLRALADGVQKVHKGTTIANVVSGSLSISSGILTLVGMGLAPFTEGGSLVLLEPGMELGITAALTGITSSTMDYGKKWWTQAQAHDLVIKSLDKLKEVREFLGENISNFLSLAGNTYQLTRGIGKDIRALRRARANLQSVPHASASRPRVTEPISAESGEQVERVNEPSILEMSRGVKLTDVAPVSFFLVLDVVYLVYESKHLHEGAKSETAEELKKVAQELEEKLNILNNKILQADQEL
Procedure: A HEK293 clonal cell line was generated to stably express GCaMP6f, a genetically encoded calcium indicator, and inducibly express APOL1 G2 (HEK T-REx/GCaMP6f/APOL1 G2 K6.3). Cells were maintained in the following standard complete medium: DMEM with 4.5 g/L glucose and sodium pyruvate (BioWhittaker, Lonza, BE12-614F), supplemented with 10% FBS Performance Plus (Gibco, 16000044), 1% penicillin-streptomycin (BioWhittaker, DE17-602E), 2 mM ultraglutamine-1 (BioWhittaker cat. BE 17-605/U1), 50 μg/mL Zeocin (InvivoGen, ant-zn), 2.5 μg/mL Blasticidin (InvivoGen, ant-bl-5), and 25 μg/mL Hygromycin (InvivoGen, ant-hg). Standard propagation conditions consisted of plating 9×10^6, 4×10^6, 2×10^6 cells in a T225 flasks to be processed after 2, 3, or 4 days, respectively.
A source plate was generated containing 20 serially diluted compounds in DMSO (duplicate 8-point dose response). Next, 0.8 μL of compounds were transferred from the source plate to a destination plate prefilled with 79.2 μL of Ca^2+ free Tyrode's buffer (130 mM NaCl, 5 mM KCl, 1 mM MgCl2, 5 mM NaHCO3, 20 mM HEPES at pH 7.4). The destination plate was placed on a plate shaker (5 seconds at 2000 rpm) to mix. […] All transfer and mixing steps were conducted with an CyBi®-Well dispenser.
Cells were split by gently washing with DPBS (Euroclone, ECB4004L), followed by a 5-minute incubation (humidified, 37° C. with 5% CO2) with trypsin-EDTA solution (Euroclone, ECB3052D). Detached cells were diluted with standard complete medium without selective agents, counted, and plated in a 384 MTP microplate (GR4332CPL, Twin Helix) (10,000 cells/well in 25 μl/well) using a MATRIX WellMate dispenser. Plates were placed into a humidified incubator (37° C. with 5% CO2) overnight. The following day, 20 μL of doxycycline (Sigma, D9891) at 20 ng/mL in standard complete medium was added to cells with a CyBi® Drop dispenser to induce APOL1 G2 expression. After a 6-hour incubation (humidified, 37° C. with 5% CO2), cells were washed 3 times with Ca^2+ free Tyrode's Buffer (130 mM NaCl, 5 mM KCl, 1 mM MgCl2, 5 mM NaHCO3, 20 mM HEPES at pH 7.4) using a BIOTEK Microplate washer, such that 10 μL of buffer remained in each well after the final wash. Assay plates were then stored at room temperature for 10 minutes. Next, 10 μL of diluted compounds were transferred to the assay plate from the 2× compound plate using a CyBi®-Well dispenser. Compound incubation was then carried out at room temperature for 10 minutes. The assay plate was transferred to the FLIPR^TETRA and 20 μL of 10 mM Ca^2+ (final concentration=5 mM) Tyrode's buffer was injected.
Unless otherwise specified, AC50 and values are reported as the geometric mean of at least 2 assay runs on separate days. Each run represents the average of a technical replicate, where each compound was assayed twice in the same plate. A superscript t symbol indicates a value from the average of a technical replicate from a single assay run, where each compound was assayed twice in the same plate.
The AC50 values in Table 39 below reflect the compound's ability to prevent calcium influx by inhibiting APOL1. […] Compounds in Table 39 are referred to by the corresponding Compound Number in Table 1, which is also referred to in the synthetic examples. When one or more of the numbered compounds are identified by stereochemistry (for example, (R)- or (S)-), the specific stereoisomer for which data is provided in Table 39 may be identified by the elution order of such compound as described in the synthetic examples. For example, Compounds 39 and 40 are associated with Step 5 of Example 13, where Compound 39 is the first eluting enantiomer, and Compound 40 is the second eluting enantiomer in the chiral separation of Compound 38. For Table 39 below, n/a represents “not available”.

[1] = system: HEK293 cells overexpressing APOL1 G2; assay: APOL1 G2 HEK293 cell rescue assay (reversal of cell death caused by overexpression of APOL1); conditions: geometric mean of at least 2 assay runs, † = single assay run
Method in brief: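 Each compound tested in duplicate wells on one plate per run, with values usually the geometric mean across at least two runs on different days, occasionally from one run only. Read-out: concentration giving half-maximal rescue of APOL1 G2 overexpression-induced death of HEK293 cells.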

[2] = system: HEK293 clonal cell line overexpressing APOL1 G1; assay: APOL1 G1 HEK293 cell rescue assay (Example B3); conditions: geometric mean of at least 2 runs, † = single run, ¥ = concentration at 50% rescue estimated (no sigmoidal curve)
Method in brief: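 Rescue of cell death caused by APOL1 G1 overexpression was measured in a clonal HEK293 line. Compounds were tested in duplicate on one plate, and EC50s were geometric means across at least two runs on different days. Some values are estimated 50%-rescue concentrations where curve fitting failed.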

[3] = HEK293 clonal line overexpressing APOL1 G1
[4] = Homo sapiens, HEK293, HEK293 overexpressing APOL1 G2
[5] = Homo sapiens, HEK293, HEK293 clonal line overexpressing APOL1 G1

Compound | AC50 (APOL1 G2) [nM] | EC50 ([1]; HEK293 overexpressing APOL1 G2) [nM] | EC50 [2, 3] [nM] | EC50 [1, 4] [nM] | EC50 [2, 5] [nM]
CC(COc1ccc(S(C)(=O)=O)cc1)N1CCC2(CC1)C(=O)N(C1CC(O)C1)c1ccc(Cl)cc12 (single isomer, unassigned) [Compound 208, 5-chloro-1′-[(2R) or (2S)-1-(4-methanesulfonylphenoxy)propan-2-yl]-1-[(cis) or (trans)-3-hydroxycyclobutyl]-1,2-dihydrospiro[indole-3,4′-piperidin]-2-one] | 1550 | 238 | 554 |  | 
CC(COc1ccc(S(C)(=O)=O)cc1)N1CCC2(CC1)C(=O)N(C1CC(O)C1)c1ccc(Cl)cc12 (single isomer, unassigned) [Compound 209, 5-chloro-1′-[(2R) or (2S)-1-(4-methanesulfonylphenoxy)propan-2-yl]-1-[(trans) or (cis)-3-hydroxycyclobutyl]-1,2-dihydrospiro[indole-3,4′-piperidin]-2-one] | 1240 | 3070 | > 2840 |  | 
C[C@@H](COc1cc(F)c(S(C)(=O)=O)c(F)c1)N1CCC2(CC1)C(=O)Nc1ccc(C#N)cc12 (single isomer, unassigned) [Compound 213] | 1120 |  |  | 189 | 497
CS(=O)(=O)c1ccc(OCCN2CCC3(CC2)C(=O)Nc2ccc(C#N)cc23)cc1C(F)CF (single isomer, unassigned) [Compound 222, 1′-(2-{3-[(1R or 1S)-1,2-difluoroethyl]-4-methanesulfonyl-phenoxy}ethyl)-2-oxo-1,2-dihydrospiro[in-dole-3,4′-piperidine]-5-carbonitrile] | 783 | 141 | 605 |  | 
CC(COc1ccc(C2(S(C)(=O)=O)COC2)cc1)N1CCC2(CC1)C(=O)Nc1ccc(C#N)cc12 (single isomer, unassigned) [Compound 264, (R) or (S)-1′-{1-[4-(3-methanesulfonyloxetan-3-yl)phenoxy]propan-2-yl}-2-oxo-1,2-dihydrospiro[indole-3,4′-piperidine]-5-carbonitrile] | 1950 | 2250 | ~10000 |  | 
C[C@]1(O)C[C@@H](n2ncc3cc(OCCN4CCC5(CC4)C(=O)Nc4ccc(C#N)cc45)cnc32)C1 (single isomer, unassigned) [Compound 437, 2-oxo-1′-[2-({1-[(cis)-3-hydroxy-3-methylcyclobutyl]-1H-pyrazolo[3,4-b]pyridin-5-yl}oxy)ethyl]-1,2-dihydrospiro[indole-3,4′-piperidine]-5-carbonitrile] | 612 |  |  | 112 | 186
CS(=O)(=O)c1ccc(OCCN2CCC3(CC2)C(=O)Nc2c(Cl)cc(Cl)cc23)cc1 [Compound 7, 5,7-dichloro-1′-[2-(4-methanesulfonylphenoxy)ethyl]-1,2-dihydrospiro[indole-3,4′-piperidin]-2-one] | 601 |  |  | 279 | 764
CS(=O)(=O)c1ccc(OCCN2CCC3(CC2)C(=O)Nc2c(Cl)cc(C#N)cc23)cc1 [Compound 8, 7-chloro-1′-[2-(4-methanesulfonylphenoxy)ethyl]-2-oxo-1,2-dihydrospiro[indole-3,4′-piperidine]-5-carbonitrile] | 833 |  |  | 598 | 1440
CS(=O)(=O)c1ccc(OCCN2CCC3(CC2)C(=O)N([C@H]2C[C@@H](O)C2)c2ccccc23)cc1 [Compound 19, 1′-[2-(4-methanesulfonylphenoxy)ethyl]-1-[(cis)-3-hydroxycyclobutyl]-1,2-dihydrospiro[indole-3,4′-piperidin]-2-one] | 481 |  |  | 794 | 4810
COCCN1C(=O)C2(CCN(CCOc3ccc(S(C)(=O)=O)cc3)CC2)c2ccccc21 [Compound 21, 1′-[2-(4-methanesulfonylphenoxy)ethyl]-1-(2-methoxyethyl)-1,2-dihydrospiro[indole-3,4′-piperidin]-2-one] | < 213 |  |  | 1270 | > 14400
CS(=O)(=O)c1ccc(OCCN2CCC3(CC2)C(=O)N(C2COC2)c2ccc(Cl)cc23)cc1 [Compound 22, 5-chloro-1′-(2-(4-(methylsulfonyl)phenoxy)ethyl)-1-(oxetan-3-yl)spiro[indoline-3,4′-piperidin]-2-one] | 306 |  |  | 232 | 580
CC(COc1ccc(S(C)(=O)=O)cc1)N1CCC2(CC1)C(=O)Nc1ccccc12 (stereo not drawn) [Compound 28, 1′-(1-(4-(methylsulfonyl)phenoxy)propan-2-yl)spiro[indoline-3,4′-piperidin]-2-one] | < 434 |  |  | 799 | 655
CN1C(=O)C2(CCN(CCOc3ccc4ncn(C)c(=O)c4c3)CC2)c2ccccc21 [Compound 29, 1-methyl-1′-{2-[(3-methyl-4-oxo-3,4-dihydroquinazolin-6-yl)oxy]ethyl}-1,2-dihydrospiro[indole-3,4′-piperidin]-2-one] | 586 |  |  | 1420 | 5560
CN1Cc2cc(OCCN3CCC4(CC3)C(=O)N(C)c3ccccc34)ccc2C1=O [Compound 30, 1-methyl-1′-{2-[(2-methyl-1-oxo-2,3-dihydro-1H-isoindol-5-yl)oxy]ethyl}-1,2-dihydrospiro[indole-3,4′-piperidin]-2-one] | 409 |  |  | 1480 | > 22500
CN1C(=O)C2(CCN(CCOc3ccc(-c4cnn(C)c4)cc3)CC2)c2ccccc21 [Compound 31, 1-methyl-1′-{2-[4-(1-methyl-1H-pyrazol-4-yl)phenoxy]ethyl}-1,2-dihydrospiro[indole-3,4′-piperidin]-2-one] | 370 |  |  | 810 | 1570
